We go through 14 molecules from ChEMBL document CHEMBL1201862, “PubChem BioAssay data set” (2004).

Some test systems named below: A549; EKVX; A498; OVCAR-8; TK-10; M14; UO-31; SW-620; Malme-3M; HL-60; SK-MEL-2; HOP-62; CCRF-CEM; 786-0; COLO 205; SNB-75; HCC 2998.
Common to all, as to experiment: DTP human tumour cell line panel, 48 h

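Grown in 96-well plates, cells were treated for 48 hours with each compound at five concentrations. Insufficient inhibition: endpoint recorded as highest concentration tested. GI50 is the concentration that inhibits growth by half.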 Active and inactive are the calls of the source. No stated cut-off is given here; in the data, active = GI50 up to about 1.1 µM and inactive = higher.

In general, GI50 refers to the concentration at which growth is held to half of that of the control.

For the molecule `O=c1[nH]c(=O)n(C2CC(O)C(CO)O2)cc1/C=C/Br` (stereo not drawn), the GI50 in the assay on A549, in the assay with EKVX, with A498, in the assay on OVCAR-8, in the assay with TK-10 and in the assay with M14 was > 100 µM (inactive) throughout. Also, the GI50 in the assay on UO-31, in the assay with SW-620, in the assay on Malme-3M, in the assay on HL-60, with SK-MEL-2 and in the assay with HOP-62 was > 100 µM (inactive) in each case. Moreover, the GI50 with CCRF-CEM and in the assay with 786-0 was > 100 µM (inactive) each time.

With `CNCCCCN(C)/[N+]([O-])=N\O`, the GI50 in the assay on A549, in the assay on EKVX, in the assay with COLO 205, in the assay with OVCAR-8, in the assay with M14 and with UO-31 was > 100 µM (inactive) throughout. Further, the GI50 in the assay on SW-620, in the assay with Malme-3M, with HL-60, in the assay with SK-MEL-2, in the assay with HOP-62 and in the assay on CCRF-CEM was > 100 µM (inactive) throughout. Further, the GI50 in the assay on SNB-75 was 49.2 µM (inactive); with HCC 2998 it was > 100 µM (inactive); in the assay on 786-0, > 100 µM (inactive).

Consider `O=C(Nc1c(O)[nH]c(=S)[nH]c1=O)c1ccccn1`, for which the GI50 in the assay on A549, in the assay with COLO 205, in the assay on A498, in the assay with OVCAR-8, in the assay with TK-10 and in the assay with M14 was > 100 µM (inactive) throughout. The GI50 with UO-31, in the assay with SW-620, in the assay with Malme-3M, with HL-60, with SK-MEL-2 and with HOP-62 was > 100 µM (inactive) each time. In addition, the GI50 in the assay with CCRF-CEM, with SNB-75 and in the assay with 786-0 was > 100 µM (inactive) each time.

Regarding `CC(C)(c1cn(Cc2ccccc2)c2ccccc12)c1cn(Cc2ccccc2)c2ccccc12`, the GI50 in the assay on A549, with EKVX, in the assay with COLO 205, in the assay with OVCAR-8, in the assay on M14 and with SW-620 was > 100 µM (inactive) in each case. Also, the GI50 in the assay with Malme-3M is 1.94 µM (inactive); in the assay on HL-60 it was > 100 µM (inactive); in the assay with HOP-62, > 100 µM (inactive); in the assay with CCRF-CEM it was > 100 µM (inactive); in the assay with SNB-75, 17.3 µM (inactive); in the assay on 786-0, > 100 µM (inactive).

For `COC(=O)C1=C(C(=O)OC)C2(C3C(SC)=CC(C)(C)CC3S1)N(Cc1ccccc1)CCN2Cc1ccccc1` (stereo not drawn), the GI50 in the assay on A549, with EKVX, in the assay on COLO 205, with OVCAR-8, with TK-10 and in the assay on M14 was > 100 µM (inactive) in each case. For the same molecule, the GI50 in the assay with UO-31, in the assay with SW-620, in the assay with Malme-3M, in the assay on SK-MEL-2, with HOP-62 and with CCRF-CEM was > 100 µM (inactive) each time. The GI50 with SNB-75 and in the assay with 786-0 was > 100 µM (inactive) in each case.

`CCCCCCCCCCCC(=O)C1=C(O)CC(O)CC1=O` (stereo not drawn): the GI50 in the assay with A549 was 59.4 µM (inactive); in the assay on EKVX, > 100 µM (inactive); with COLO 205 it was > 100 µM (inactive); in the assay on OVCAR-8 it was 74.1 µM (inactive); in the assay with TK-10, > 100 µM (inactive); with M14, > 100 µM (inactive). In addition, the GI50 in the assay on UO-31 was 64.4 µM (inactive); in the assay with SW-620, > 100 µM (inactive); in the assay with HL-60 it was 23.1 µM (inactive); in the assay with SK-MEL-2, > 100 µM (inactive); with HOP-62, > 100 µM (inactive); with CCRF-CEM, 62.2 µM (inactive). The GI50 in the assay on SNB-75, in the assay with HCC 2998 and in the assay on 786-0 was > 100 µM (inactive) in each case.

Regarding `CC(=O)c1c2c(cc3c1CC1(C3)Cc3cc4c(c(C(C)=O)c3C1)CCC4)CCC2`, the GI50 with A549, in the assay with COLO 205, with OVCAR-8, in the assay with TK-10, in the assay with M14 and in the assay with UO-31 was > 100 µM (inactive) in each case. For the same molecule, the GI50 in the assay with SW-620 was > 100 µM (inactive); with Malme-3M it was 40.3 µM (inactive); in the assay on HL-60 it was 19.3 µM (inactive); with HOP-62, > 100 µM (inactive); in the assay with CCRF-CEM, > 100 µM (inactive); in the assay with SNB-75, 82.4 µM (inactive). Further, the GI50 in the assay with HCC 2998 and in the assay on 786-0 was > 100 µM (inactive) in each case.

Turning to `Cc1ccc(S(=O)(=O)C(CC(=O)N2CCCC2)C(=O)c2ccccc2)cc1` (stereo not drawn), the GI50 in the assay with A549, with COLO 205, in the assay with OVCAR-8, in the assay with TK-10, in the assay with M14 and in the assay on UO-31 was > 100 µM (inactive) throughout. Moreover, the GI50 is 37.7 µM (inactive) in the assay with SW-620; > 100 µM (inactive) with Malme-3M; 19.5 µM (inactive) in the assay with HL-60; > 100 µM (inactive) in the assay on HOP-62; 24.6 µM (inactive) with CCRF-CEM; 80.2 µM (inactive) in the assay on SNB-75. The GI50 in the assay with HCC 2998 and in the assay on 786-0 was > 100 µM (inactive) throughout.

`Nc1ncnc2sc(Nc3ccccc3)nc12`: the GI50 was > 100 µM (inactive) with A549; > 100 µM (inactive) in the assay with COLO 205; > 100 µM (inactive) in the assay with OVCAR-8; 46.9 µM (inactive) with TK-10; 92 µM (inactive) in the assay with M14; 45.8 µM (inactive) with UO-31. Further, the GI50 in the assay with SW-620 is > 100 µM (inactive); with Malme-3M, > 100 µM (inactive); in the assay with HL-60, 2.54 µM (inactive); in the assay on SK-MEL-2 it was > 100 µM (inactive); with HOP-62, 81.7 µM (inactive); with SNB-75 it was 29.6 µM (inactive). Also, the GI50 in the assay with HCC 2998 is > 100 µM (inactive); with 786-0, 26.5 µM (inactive).

For `CC(SC(=O)Nc1ccc(/N=N/c2ccccc2)cc1)C(=O)O` (stereo not drawn), the GI50 with A549 was 56.4 µM (inactive); with EKVX, > 100 µM (inactive); with COLO 205 it was > 100 µM (inactive); in the assay with A498 it was > 100 µM (inactive); in the assay with OVCAR-8, 57 µM (inactive); in the assay with TK-10 it was 58.1 µM (inactive). The GI50 in the assay with M14 is > 100 µM (inactive); in the assay with UO-31 it was 68.7 µM (inactive); in the assay on SW-620, > 100 µM (inactive); in the assay on HL-60 it was 38.6 µM (inactive); in the assay on SK-MEL-2 it was > 100 µM (inactive); in the assay with HOP-62 it was > 100 µM (inactive). The GI50 in the assay on CCRF-CEM was 36 µM (inactive); in the assay on SNB-75, 6.4 µM (inactive); in the assay on HCC 2998, > 100 µM (inactive); in the assay on 786-0 it was 79.8 µM (inactive).

As for `CN(C)c1ccc(/C=c2/sc3nc(=O)c(-c4ccccc4NC(=O)C(F)(F)F)nn3c2=O)cc1`, the GI50 with A549 is > 100 µM (inactive); in the assay with EKVX it was > 100 µM (inactive); in the assay with COLO 205, 98.6 µM (inactive); with OVCAR-8, > 100 µM (inactive); in the assay with TK-10 it was > 100 µM (inactive); in the assay on M14, > 100 µM (inactive). The GI50 was 50 µM (inactive) in the assay on UO-31; > 100 µM (inactive) with SW-620; > 100 µM (inactive) with Malme-3M; > 100 µM (inactive) with SK-MEL-2; > 100 µM (inactive) with HOP-62; > 100 µM (inactive) with CCRF-CEM. The GI50 in the assay on SNB-75, in the assay on HCC 2998 and in the assay with 786-0 was > 100 µM (inactive) in each case.

As to `CC(C)(C)c1cc2nc(c1)C(C(F)(F)F)(C(F)(F)F)OB(Br)OC2(C(F)(F)F)C(F)(F)F`, the GI50 is < 0.01 µM (active) with A549; < 0.01 µM (active) in the assay on EKVX; < 0.01 µM (active) in the assay on COLO 205; < 0.01 µM (active) in the assay with OVCAR-8; 0.0802 µM (active) with TK-10; 0.0209 µM (active) in the assay on M14. For the same molecule, the GI50 in the assay on UO-31 was 0.292 µM (active); in the assay on SW-620, < 0.01 µM (active); in the assay on Malme-3M, 0.617 µM (active); with SK-MEL-2, 1.47 µM (inactive); in the assay with HOP-62, 0.0367 µM (active); in the assay on CCRF-CEM, < 0.01 µM (active). Besides, the GI50 with SNB-75 was 3.56 µM (inactive); in the assay on HCC 2998 it was 0.233 µM (active); in the assay with 786-0 it was 0.115 µM (active).

Turning to `Cc1c2cc[n+](C)cc2c(C)c2c1[nH]c1ccc(OCC(F)(F)F)cc12`, the GI50 is 1.53 µM (inactive) in the assay on A549; 15 µM (inactive) in the assay on EKVX; 1.46 µM (inactive) in the assay with COLO 205; 0.798 µM (active) in the assay with OVCAR-8; 3.35 µM (inactive) in the assay with SW-620; 2.02 µM (inactive) with Malme-3M. The GI50 in the assay on SK-MEL-2 was 3.4 µM (inactive); with HOP-62 it was 0.789 µM (active); in the assay on CCRF-CEM, 4.16 µM (inactive); in the assay on HCC 2998, 5.05 µM (inactive); with 786-0 it was 0.378 µM (active).

`COc1ccc(-c2cc(=O)c3ccc(O)cc3o2)c(OC)c1OC`: the GI50 in the assay on A549 was 55.7 µM (inactive); in the assay on EKVX, 87.3 µM (inactive); with COLO 205 it was 95.9 µM (inactive); in the assay on TK-10 it was 78.3 µM (inactive); with M14, 72.9 µM (inactive); in the assay on SW-620, 48 µM (inactive). For the same molecule, the GI50 in the assay with Malme-3M was > 100 µM (inactive); in the assay with HL-60 it was 31.6 µM (inactive); with SK-MEL-2, 27.2 µM (inactive); in the assay on HOP-62, 92.3 µM (inactive); in the assay on CCRF-CEM, 42.8 µM (inactive); in the assay with SNB-75, 28.7 µM (inactive). In addition, the GI50 is 48.8 µM (inactive) with HCC 2998 and 79.3 µM (inactive) in the assay on 786-0.
